Source: patent US8841325B2, “Immunomodulatory compounds for the restoration of vitamin D sensitivity in vitamin D resistant tumor cells” (Celgene Corporation, priority 2009, dated 2014)

Columns and labels:
Format in all cases: cell-based
MDA-MB-231 cells [1] = experiment: Cell viability by neutral red assay, MDA-MB-231; conditions: for effect on cell viability: single agent, up to 6 days, Thalidomide 0.01-100 μM, CC-4047 and lenalidomide 0.001-10 μM, FIG. 6A
Procedure: (§1) Cells were seeded in 24 wells plates at a density of 10^4 cells per well and allowed to adhere for 24 hours. […] The drug was renewed every 2 days. Cell viability was then determined by neutral red assay, measuring absorbance at 550 nm.
(§2) After 6 days treatment, cells were seeded into 24 well plates at a density of 1×10^4 cells/wells. After 24 h, cells were treated with reagents or vehicle for up to six days. At the end of the incubation period, medium was removed and cells were incubated with neutral red solution (40 μg/ml in phenol red and serum free DMEM) for 2 h at 37° C. After removal of the neutral red solution, wells were rinsed once with 1 ml 4% formal saline containing 0.5% CaCl2. Plates were inverted on paper towel to drain and 200 μl of elution fluid (1% acetic acid in 50% ethanol) was added. Following incubation at room temperature for 30 min with gentle shaking, absorbance at 550 nm was determined
(§3) To accomplish this, cells were treated for up to 6 days with different concentrations of a BCL-2 inhibitor, ABT-263 ([…]). Non-treated cells were used as a control. After 6 days of treatment, cell viability was measured by neutral red assay (FIG. 16). In the three cell lines, BCL-2 inhibition leads to cell death. The IC50 is almost equivalent in all cell lines (1 μM+/−0.2 μM).
(§4) More particularly, FIG. 16 illustrates the effects of BCL-2 inhibition on MCF-7VD^R and HBL-100 viability. MDA-MB-231, MCF-7/VD^R and HBL-100 cells were treated for up to 6 days with different concentrations of ABT-263 (0.2 up to 20 μM). Non-treated cells were used as a control. After 6 days of treatment, cell viability was measured by neutral red assay. Results are mean of three independent experiments (each made in quadruplicate).

MCF-7/VD^R cells = experiment: Cell viability by neutral red assay, MCF-7/VD^R; conditions: Homo sapiens, MCF7, 144 h; ABT-263, 6 days, FIG. 16; read-out: IC50 (cell viability / killing)
Excerpt: (§5) Non-treated cells were used as a control.
as §5

HBL-100 cells = experiment: Cell viability by neutral red assay, HBL-100; conditions: Homo sapiens, HBL-100, 144 h; ABT-263, 6 days, FIG. 16; read-out: IC50 (cell viability / killing)
Procedure: as §2
In order to validate the previous results obtained in MDA-MB-231 cells, two other vitamin D resistant cell lines MCF-7/VD^R and HBL-100 cells, were investigated. First the effect of lenalidomide on these cells lines were investigated. To this end, cells were treated for up to 6 days with different concentrations of lenalidomide (0 μM up to 10 μM). Cell viability was measured by neutal red dye assay (FIG. 13).
(§6) More particularly, FIG. 13 illustrates the effects of lenalidomide treatment on MCF-7/VDR and HBL-100 viability. MCF-7/VDR and HBL-100 cells were treated for up to 6 days with different concentrations of lenalidomide (0 μM up to 10 μM). Cell viability was measured by neutral red dye assay. Results are mean of three independent experiments (each made in quadruplicate).
Cell viability was measured by neutral red dye assay (FIG. 14).
as §6, with “14” for “13”, “lenalidomide/1, 25-D3 co-treatment” for “lenalidomide treatment”, “(0.01” for “(0”, “1 μM) alone or in combination with different concentrations of 1, 25-D3 (0 for up to 1000 nM).” for “10 μM).”
as §3, §4

MCF-12A cells [2] = experiment: Cell viability by neutral red assay, MCF-12A; conditions: single agent, up to 6 days, Thalidomide 0.01-100 μM, CC-4047 and lenalidomide 0.001-10 μM, FIG. 6A
Procedure: as §1, §2

MCF-7 cells [3] = experiment: Cell viability by neutral red assay, MCF-7; conditions: single agent, up to 6 days, Thalidomide 0.01-100 μM, CC-4047 and lenalidomide 0.001-10 μM, FIG. 6A
Procedure: as §1, §2

MCF-12A cells [4] = experiment: Cell growth by Sulphorhodamine B (SRB) assay, MCF-12A; conditions: single agent, up to 6 days, Thalidomide 0.01-100 μM, CC-4047 and lenalidomide 0.001-10 μM, FIG. 6B
Procedure: (§7) Cells were seeded in 24 wells plates at a density of 10^4 cells per well and allowed to adhere for 24 hours. […] Each treatment was carried out for up to 7 days, but renewed every 2 days. Cell growth was then determined by Sulphorhodamine B (SRB) assay, measuring absorbance at 550 nm.
(§8) After 6 days treatment, cells were seeded in 24 well plates at a density of 1×10^4 cells/well. After 24 h cells were treated with reagents or vehicle for up to six days. Cells were treated for up to 6 days with log doses of Thalidomide (0.1 μM up to 100 μM), pomalidomide and lenalidomide (0 μM up to 10 μM). At the end of each experiment, cells were fixed to the bottom of the well by addition of ice-cold 50% w/v trichloroacetic acid (TCA) to give a final concentration of 10% TCA. Plates were incubated at 4° C. for 30 minutes and then washed with distilled water. Plates were allowed to air-dry at room temperature before staining with 0.4% w/v SRB in 1% v/v acetic acid and incubated for 15 minutes on a shaker. The plates were then extensively washed with 1% acetic acid to remove unbound dye and were again allowed to air-dry at room temperature. Incorporated dye was solubilised with 200 μl […] Tris base. 100 μl aliquots were transferred to a 96 well plate and absorbance at 550 nm was determined

MCF-7 cells [5] = experiment: Cell growth by Sulphorhodamine B (SRB) assay, MCF-7; conditions: single agent, up to 6 days, Thalidomide 0.01-100 μM, CC-4047 and lenalidomide 0.001-10 μM, FIG. 6B
Procedure: as §7, §8

MDA-MB-231 cells [6] = experiment: Cell growth by Sulphorhodamine B (SRB) assay, MDA-MB-231
Procedure: (§9) Cells were seeded in 24 wells plates at a density of 10^4 cells per well and allowed to adhere for 24 hours. To determine the combination effects of the drugs, cells were treated with 100 nM 1,25 D3 and 10 nM 1-oxo-2-(2,6-dioxopiperidin-3-yl)-4-aminoisoindoline or 1,3-dioxo-2-(2,6-dioxopiperidin-3-3-yl)-4-aminoisoindoline. Each treatment was carried out for up to 7 days, but renewed every 2 days. Cell growth was then determined by Sulphorhodamine B (SRB) assay, measuring absorbance at 550 nm.
as §9, with “per wekk” for “per well”, “and varying doses of” for “and 10 nM”, “or 1,3-dioxo-2-(2,6-dioxopiperidin-3-yl)-4-aminoisoindoline.” for “or 1,3-dioxo-2-(2,6-dioxopiperidin-3-3-yl)-4-aminoisoindoline.”
as §8

| Structure (SMILES) | IC50 (MDA-MB-231 cells [1]; Homo sapiens, MDA-MB-231, 144 h, ABT-263, 6 days, FIG. 16, read-out: IC50 (cell viability / killing)) | IC50 (MCF-7/VD^R cells) | IC50 (HBL-100 cells) | effect on cell viability (MCF-12A cells [2]) | effect on cell viability (MCF-7 cells [3]) | effect on cell viability (MDA-MB-231 cells [1]) | effect on cell growth (MCF-12A cells [4]) | effect on cell growth (MCF-7 cells [5]) | minimal concentration giving statistically significant inhibition of growth (MDA-MB-231 cells [6]; in the presence of 100 nM 1,25 D3, up to 7 days, FIG. 3) | effect on cell growth (MDA-MB-231 cells [6]; single agent, 0.001-10 μM, up to 6 days) | inhibition at 100 µM (MDA-MB-231 cells [6]; Homo sapiens, MDA-MB-231, 144 h, single agent, 100 μM Thalidomide (highest dose), up to 6 days) |
| --- | --- | --- | --- | --- | --- | --- | --- | --- | --- | --- | --- |
| CC1(C)CCC(c2ccc(Cl)cc2)=C(CN2CCN(c3ccc(C(=O)NS(=O)(=O)c4ccc(N[C@H](CCN5CCOCC5)CSc5ccccc5)c(S(=O)(=O)C(F)(F)F)c4)cc3)CC2)C1 [ABT-263] | 1000 nM | 1000 nM | 1000 nM | – | – | – | – | – | – | – | – |
| Nc1cccc2c1C(=O)N(C1CCC(=O)NC1=O)C2=O (stereo not shown) [Pomalidomide, 1,3-dioxo-2-(2,6-dioxopiperidin-3-yl)-4-aminoisoindoline] | – | – | – | do not Affect | do not Affect | do not Affect | do not Affect | do not Affect | 0.1 µM | no effects | – |
| O=C1CCC(N2C(=O)c3ccccc3C2=O)C(=O)N1 (stereo not shown) [Thalidomide] | – | – | – | do not Affect | do not Affect | do not Affect | do not Affect | do not Affect | – | – | 20% |
